This assay has as its target T1, Progesterone receptor (Homo sapiens, UniProt P06401).
T1 sequence (P06401 whole entry): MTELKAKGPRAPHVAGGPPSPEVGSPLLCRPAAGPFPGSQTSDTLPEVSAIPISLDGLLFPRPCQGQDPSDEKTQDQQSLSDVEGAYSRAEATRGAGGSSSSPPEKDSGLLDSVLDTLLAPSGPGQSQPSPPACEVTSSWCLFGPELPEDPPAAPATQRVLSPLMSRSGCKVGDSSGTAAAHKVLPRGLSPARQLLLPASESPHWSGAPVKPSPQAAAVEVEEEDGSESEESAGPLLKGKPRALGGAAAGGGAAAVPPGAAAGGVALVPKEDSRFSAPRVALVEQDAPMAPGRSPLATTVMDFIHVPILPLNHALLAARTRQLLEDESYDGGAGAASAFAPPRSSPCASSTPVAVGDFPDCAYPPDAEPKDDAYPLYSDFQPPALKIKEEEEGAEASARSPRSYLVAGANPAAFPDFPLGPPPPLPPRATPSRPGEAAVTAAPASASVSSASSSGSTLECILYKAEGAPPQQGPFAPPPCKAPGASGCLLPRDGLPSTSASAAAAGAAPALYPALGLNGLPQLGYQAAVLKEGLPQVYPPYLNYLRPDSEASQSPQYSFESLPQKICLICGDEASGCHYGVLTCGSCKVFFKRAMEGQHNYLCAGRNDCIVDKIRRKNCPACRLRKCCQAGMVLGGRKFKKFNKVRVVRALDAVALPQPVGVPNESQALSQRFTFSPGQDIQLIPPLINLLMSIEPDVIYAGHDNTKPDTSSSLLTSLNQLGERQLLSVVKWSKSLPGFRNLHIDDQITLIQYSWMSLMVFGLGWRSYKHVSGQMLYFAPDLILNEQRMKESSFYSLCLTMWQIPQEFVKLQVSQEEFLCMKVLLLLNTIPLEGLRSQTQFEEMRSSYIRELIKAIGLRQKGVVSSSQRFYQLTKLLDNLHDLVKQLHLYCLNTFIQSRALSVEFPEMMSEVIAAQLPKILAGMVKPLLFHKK
The experiment in a line: Displacement of [3H]progesterone from Progesterone receptor. A general note: Displacement assays read how much labelled ligand stays bound in the presence of the test substance.

Structures are written as SMILES.

`CC1=CC(C)(C)Nc2ccc3c(c21)COc1c(F)cc(F)cc1-3` [7,9-difluoro-2,2,4-trimethyl-2,5-dihydro-1H-chromeno[3,4-f]quinoline]: the Ki is 13 nM. In the case of `CC1=CC(C)(C)Nc2ccc3c(c21)Cc1c(F)cccc1-3` [10-Fluoro-1,3,3-trimethyl-4,11-dihydro-3H-indeno[2,1-f]quinoline] it was 15 nM.

In general, Ki refers to a dissociation constant, usually derived from enzyme kinetics or from competition with a known ligand. A higher Ki goes with weaker binding.

Values taken from BindingDB's records for doi:10.1021/jm060234e (Scientific Computing, 2006).
